The values below come from publication PMC8776337, “Peptides Derived from Vascular Endothelial Growth Factor B Show Potent Binding to Neuropilin‐1” (Chembiochem, 2021).

Molecules are shown by their SMILES. Read-outs that look alike come from different tables or passages of the source. Positions of bridges follow the written chain, without caps; N, C: chain ends. Residues, ends and D or L forms follow the SMILES beside them. *: point of attachment. Palmitoyl = CCCCCCCCCCCCCCCC(=O)*; Hept6ynoyl = C#CCCCCC(=O)*

One may read the IC50 as the point on the concentration scale where inhibition reaches its midpoint. By Kd is commonly meant the constant that tells how readily two partners part at equilibrium.

One experiment deals with T1, NRP1‐b1 (Homo sapiens, UniProt O14786).
T1 construct: the immobilized b1 domain of NRP1 (NRP1‐b1); poly-histidine (TEV-cleavable) (cleaved yes); made in house; host or cells: E. coli Rosetta (DE3)
T1 sequence (O14786 275-424 limits assumed): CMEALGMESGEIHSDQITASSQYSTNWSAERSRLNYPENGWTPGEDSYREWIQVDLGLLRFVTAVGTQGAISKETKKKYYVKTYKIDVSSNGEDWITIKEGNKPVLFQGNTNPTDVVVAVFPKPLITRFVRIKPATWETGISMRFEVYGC
Nature of the experiment: SPR binding of peptides to immobilised NRP1-b1. The note with it: for Receptor occupancy: immobilised NRP1-b1. An excerpt: We then designed four additional peptides with added lipid chains (Figures 3 and 4). We investigated the effect of lipidation on the N‐terminus (MGC0171 and MGC0174) and on the side chain of a lysine in close proximity to the C‐terminus (MGC0172 and MGC0173) as shown (Figure 5). For the SPR analysis of the lipidated peptides we fitted data to a two‐state reaction model to account for the nonspecific binding of the palmitoyl side chains. Since the model assumes two binding events it provides two association (k a) and dissociation (k d) rates, and the overall equilibrium dissociation constant is calculated using the equation: KD=KD1(1+KD2), in which KD1 and KD2 are obtained as […]. The inverse of the dissociation rate corresponds to the residence time. […] The lipidated peptides were also tested for inhibition of VEGF‐A165 binding to NRP1 in a cell‐based assay (Figure 8).
Surface plasmon resonance: SPR measurements were performed using either Biacore T200 or Biacore 4000 at a constant temperature of 25 °C. All sensor chips, stock buffers, and immobilisation reagents were purchased from GE Healthcare/Cytvia and were prepared according to the manufacturer's instructions.
Chip preparation: PBS containing 0.05 % surfactant P20 was used as the running buffer during immobilisation. Proteins were immobilised onto a CM5 chip using random amine coupling following a standard procedure using the conditions specified in Table 2. A flow cell upstream of the treated flow cell was used as a reference which allowed removal of non‐specific binding to the chip.
Kinetic measurements of peptides: Peptides were injected over immobilized NRP1‐b1 for 60 s, followed by 120 or 180 s dissociation. The surface was regenerated with 1 M NaCl between injections. The SPR response curves were fit to a binding model to obtain association (ka ) and dissociation (kd ) rates which were then converted into equilibrium dissociation constant (KD ) and residence time. For a 1 : 1 binding model […] and for a two‐state binding model KD=K1(1+K2). Residence time was calculated as 1/kd .
(Surface plasmon resonance follows binding to a sensor surface in real time, without labels.)

The test system of experiment [1] is VEGF‐A165 stimulated phosphorylation in HUVECs. Nature of the experiment: Western blot of VEGF-A-stimulated phosphorylation of downstream signalling proteins in HUVECs. It counts as cell-based, human. As to conditions: HUVECs pre-treated 30 min with 10 μM peptide, then VEGF-A165 10 min. The method, then: Figure 7 Effect of VEGF ‐ derived peptides on VEGF‐A ‐stimulated phosphorylation of downstream signalling proteins as probed by Western blot. A) VEGF‐B167 derived peptide MGC0123. B) VEGF‐A165 derived peptide MGC0124. HUVECs were pre‐treated for 30 min with peptide (10 μM) then stimulated for 10 minutes with VEGF‐A165.
Cell culture: Human umbilical vein endothelial cells (HUVECs) were cultured in t75 cm2 flasks for a maximum of 2 passages in EGM Endothelial Cell Growth Medium (#CC‐3124, Lonza, USA) supplemented with 10 % FBS. Cells were split into 6‐well‐plates and allowed to grow to ∼80 % confluence. Cells were starved by incubating in 0.5 % FBS serum EGM overnight and serum‐free EGM for 1 h directly before stimulation. Human DU145 cells for the cell‐based assay (see below) were cultured in t75 cm2 flasks in DMEM supplemented with 10 % FBS.
Immunoblotting: Cells were pre‐treated with the indicated peptide (10 μM) for 30 minutes prior to treatment with VEGF‐A165 at the indicated concentrations for 10 minutes. Cells were lysed in a solution containing Tris⋅HCl (pH 7.5, 50 mm), Triton X‐100 (1 %), NaCl (150 mm), EDTA (5 mm), complete protease inhibitor (Roche) and phosphatase inhibitors I and II (Sigma) and analysed by SDS‐PAGE with 4–12 % Bis⋅Tris gels (Nupage, Invitrogen), followed by electrotransfer onto Invitrolon PVDF membranes (Invitrogen). Membranes were blocked with non‐fat dry milk (5 % w/v) and Tween‐20 (0.1 % v/v) in tris‐buffered saline (TBS‐T), for 1 h at room temperature, before being probed with the primary antibody by overnight incubation at 4 degrees C, followed by incubation for 1 h at room temperature with a horseradish‐ peroxidase‐linked secondary antibody (Santa Cruz) and detection with the aid of ECL plus reagents (GE Healthcare, Little Chalfont, UK), by the manufacturer's protocol.

Experiment [2] deals with T2, bt‐VEGF‐A165 binding to NRP1 in HUVEC cells (Homo sapiens, UniProt O14786).
T2 construct: expressed in transfected cells
T2 sequence (O14786 22-923): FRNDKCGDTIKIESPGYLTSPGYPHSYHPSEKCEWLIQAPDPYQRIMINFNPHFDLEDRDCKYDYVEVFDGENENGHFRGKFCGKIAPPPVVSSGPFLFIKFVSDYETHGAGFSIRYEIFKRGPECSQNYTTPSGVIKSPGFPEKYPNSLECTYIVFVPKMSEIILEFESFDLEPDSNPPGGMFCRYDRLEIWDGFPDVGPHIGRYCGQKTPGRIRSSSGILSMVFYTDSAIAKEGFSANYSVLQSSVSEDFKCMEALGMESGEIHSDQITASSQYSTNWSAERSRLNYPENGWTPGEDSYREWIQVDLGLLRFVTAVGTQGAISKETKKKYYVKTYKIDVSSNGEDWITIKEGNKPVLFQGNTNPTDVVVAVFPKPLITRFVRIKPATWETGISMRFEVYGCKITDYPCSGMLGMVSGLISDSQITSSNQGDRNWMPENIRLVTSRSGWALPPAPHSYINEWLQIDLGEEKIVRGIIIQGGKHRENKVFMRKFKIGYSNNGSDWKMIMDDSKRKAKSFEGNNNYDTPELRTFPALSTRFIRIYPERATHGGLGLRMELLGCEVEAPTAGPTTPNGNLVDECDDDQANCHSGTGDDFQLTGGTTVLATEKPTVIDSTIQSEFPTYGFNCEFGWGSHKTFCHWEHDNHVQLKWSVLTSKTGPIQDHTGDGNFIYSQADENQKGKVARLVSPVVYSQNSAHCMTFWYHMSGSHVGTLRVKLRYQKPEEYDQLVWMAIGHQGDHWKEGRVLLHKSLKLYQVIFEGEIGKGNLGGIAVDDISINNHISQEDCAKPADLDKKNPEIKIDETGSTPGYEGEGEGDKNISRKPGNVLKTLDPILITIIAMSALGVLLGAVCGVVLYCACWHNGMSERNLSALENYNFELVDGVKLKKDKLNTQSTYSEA
The experiment is described as follows: Cell based binding assay, inhibition of bt-VEGF-A165 binding to NRP1. As to conditions: bt-VEGF-A165 4 nM. On the procedure: A) N‐terminal palmitoyl VEGF‐B167 derived peptide MGC0174. B) Lysine palmitoyl peptide MGC0173. C) N‐terminal palmitoyl VEGF‐A165 derived peptide MGC0171. D) Lysine VEGF‐A165 palmitoyl peptide MGC0172.
Cell based binding assay for bt‐VEGF binding to NRP1‐b1: A flat‐bottomed 96 well plate was coated with 100 μL 10 μg/mL Poly‐D‐lysine (110 μL in 10890 μL PBS) and incubated for 1 hour at R.T. DU145 cells were seeded at a concentration of 20,000 DU145 cells/well in DMEM with 10 % FBS and incubated for 4 hours. Cells were then infected with 0.3 μL per well of adenovirus expressing NRP1 (stock at 1×1012 vp/mL) and incubated for 40 hours. The media was removed followed by washing cells twice in 200 μL of PBS per well. The plate was placed on ice and 50 μL of binding medium was added per well for total binding. Next, 50 μL of 100‐fold excess (100×btVEGF‐A165) of unlabelled‐VEGF (diluted in binding medium) was added per well for non‐specific binding. Peptides (50 μL) at the indicated concentrations were diluted in binding medium and added to specified wells. bt‐VEGF (50 μL of 4 nM; diluted in binding medium) was added per well for both total and non‐specific binding and samples. The plate was incubated at 4 °C for 2 hours. The plate was then placed on ice and the medium was removed followed by gently washing the cells 3 times in 200 μL of PBS per well.
Streptavidin‐horseradish peroxidase (100 μL; dilute to the working concentration specified on the vial label using PBS+1 % BSA=1 : 200) was added to each well. The plate was sealed and incubated for 30 minutes at room temperature. Three more washes with 200 μL PBS were done. Then, 100 μL of substrate solution was added to each well (protected from light). Colour Reagent A and B were mixed together in equal volumes within 15 minutes of use. The plate was sealed and incubated for 20 minutes at room temperature. Stop solution (50 μL) was added to each well ensuring even mixing. The plate was read using Tecan Genios plate reader using a 450 nm cut‐off filter and also with a reference 595 nm cut‐off filter. Nonspecific binding was determined in the absence of NP‐1 coated on the microplate.

Setting [3] is: SPR, immobilised NRP1-b1, 25 °C, 1:1 model, or first residence time of the two-state model, read-out: Residence time (1/kd) (converted).

In turn, `C#CCCCCC(=O)N[C@@H](CCCNC(=N)N)C(=O)N[C@H]1CSSC[C@@H]2NC(=O)[C@H]([C@@H](C)O)NC(=O)[C@H](CC(=O)O)NC(=O)[C@@H]3CCCN3C(=O)[C@H](CC(N)=O)NC(=O)[C@H](CC(C)C)NC(=O)[C@H](CCC(=O)O)NC(=O)[C@H](CC(C)C)NC(=O)CNC(=O)[C@H](CCCNC(=N)N)NC(=O)CNC(=O)[C@H](CCC(N)=O)NC(=O)[C@H](CSSC[C@@H](C(=O)N[C@@H](CCCNC(=N)N)C(=O)N[C@@H](CCCCN)C(=O)N[C@@H](CC(C)C)C(=O)N[C@@H](CCCNC(=N)N)C(=O)N[C@@H](CCCNC(=N)N)C(=O)O)NC(=O)[C@H](CCCNC(=N)N)NC2=O)NC(=O)[C@H](CCCNC(=N)N)NC(=O)[C@H](CC(C)C)NC(=O)[C@H](Cc2ccccc2)NC(=O)[C@H](CO)NC(=O)[C@H](CCCNC(=N)N)NC(=O)[C@H](CCCNC(=N)N)NC(=O)[C@H](CCCNC(=N)N)NC1=O` [MGC0123] (Hept6ynoyl-RCRRRSFLRCQGRGLELNPDTCRCRKLRR-OH; disulfide 2-22, 10-24) yielded a Receptor occupancy at NRP1‐b1 (SPR) of 54±3%. In addition, the residence time on NRP1‐b1 (read-out: Residence time (1/kd)) was 0.308 min. Moreover, in experiment [1], the “VEGF‐A165 dependent ERK phosphorylation” value is listed as “dramatically inhibited”, the “VEGF‐A165 dependent VEGFR2 phosphorylation” value is “dramatically inhibited”, the “VEGF‐A mediated P130Cas phosphorylation” value was “also inhibited” and the “VEGF‐A mediated Paxillin phosphorylation” value was “also inhibited”.
For `CCCCCCCCCCCCCCCC(=O)NCCCC[C@H](NC(=O)[C@H](CC(=O)O)NC(=O)[C@@H]1CSSC[C@@H]2NC(=O)[C@H](CCCNC(=N)N)NC(=O)[C@H](CO)NC(=O)[C@H](CC(=O)O)NC(=O)[C@H]([C@@H](C)O)NC(=O)[C@H](CC(N)=O)NC(=O)[C@H](CCCCN)NC(=O)[C@@H](NC(=O)[C@H](CO)NC(C)=O)CSSC[C@H](NC(=O)[C@H]([C@@H](C)O)NC(=O)[C@H](CCCNC(=N)N)NC(=O)[C@H](CCC(=O)O)NC(=O)[C@H](CC(N)=O)NC(=O)[C@H](CC(C)C)NC(=O)[C@H](CCC(=O)O)NC(=O)[C@H](CC(C)C)NC(=O)[C@H](CCC(N)=O)NC(=O)[C@H](CCCNC(=N)N)NC(=O)[C@H](C)NC(=O)[C@H](CCCCN)NC2=O)C(=O)N[C@@H](CCCNC(=N)N)C(=O)N1)C(=O)N1CCC[C@H]1C(=O)N[C@@H](CCCNC(=N)N)C(=O)N[C@@H](CCCNC(=N)N)C(=O)O` [MGC0172] (Ac-SCKNTDSRCKARQLELNERTCRCDK(Palmitoyl)PRR-OH; disulfide 2-21, 9-23), the 50% inhibitory concentration (IC50) in experiment [2] (4 °C, 2 h, streptavidin-horseradish peroxidase detection, read-out: IC50, cell‐based activity (HUVECs), inhibition of bt‐VEGF‐A165 binding to NRP1) is 10.4 µM. Moreover, in experiment [2] (HUVEC cells), the “HS (of the inhibition curve of bt‐VEGF‐A165 binding to NRP1)” value was determined as 1.9. At NRP1‐b1 (SPR), this compound displayed a Receptor occupancy of 22±1%. Moreover, the residence time on NRP1‐b1 (setting [3]) was 0.123 min; on NRP1‐b1 (SPR, immobilised NRP1-b1, 25 °C, two-state model, lipidated peptides, read-out: Second residence time calculated from two‐state model (converted)), 1.99 min. At NRP1‐b1 (SPR, peptide injected 60 s over NRP1-b1 immobilised on CM5 chip, 25 °C, 1:1 model for MGC0122/0123/0124, two-state model for lipidated peptides, read-out: KD, SPR binding to NRP1‐b1), the Kd came out at 1.22 ± 0.25 µM.
In the case of `C#CCCCCC(=O)N[C@@H](CO)C(=O)N[C@H]1CSSC[C@@H]2NC(=O)[C@H]([C@@H](C)O)NC(=O)[C@H](CCCNC(=N)N)NC(=O)[C@H](CCC(=O)O)NC(=O)[C@H](CC(N)=O)NC(=O)[C@H](CC(C)C)NC(=O)[C@H](CCC(=O)O)NC(=O)[C@H](CC(C)C)NC(=O)[C@H](CCC(N)=O)NC(=O)[C@H](CCCNC(=N)N)NC(=O)[C@H](C)NC(=O)[C@H](CCCCN)NC(=O)[C@H](CSSC[C@@H](C(=O)N[C@@H](CC(=O)O)C(=O)N[C@@H](CCCCN)C(=O)N3CCC[C@H]3C(=O)N[C@@H](CCCNC(=N)N)C(=O)N[C@@H](CCCNC(=N)N)C(=O)O)NC(=O)[C@H](CCCNC(=N)N)NC2=O)NC(=O)[C@H](CCCNC(=N)N)NC(=O)[C@H](CO)NC(=O)[C@H](CC(=O)O)NC(=O)[C@H]([C@@H](C)O)NC(=O)[C@H](CC(N)=O)NC(=O)[C@H](CCCCN)NC1=O` [MGC0124] (Hept6ynoyl-SCKNTDSRCKARQLELNERTCRCDKPRR-OH; disulfide 2-21, 9-23), on NRP1‐b1 (SPR), the Receptor occupancy worked out at 84±1%. The residence time at NRP1‐b1 (setting [3]) is 0.0117 min. Besides, in experiment [1], the “VEGF‐A165 dependent ERK phosphorylation” value is reported as “little effect”, the “VEGF‐A165 dependent VEGFR2 phosphorylation” value is reported as “strongly reducing”, the “VEGF‐A mediated P130Cas phosphorylation” value is on record as “little effect” and the “VEGF‐A mediated Paxillin phosphorylation” value is reported as “little effect”.
For the compound `C#CCCCCC(=O)N[C@@H](CC(=O)O)C(=O)N[C@@H](CCCNC(=N)N)C(=O)N[C@@H](C)C(=O)N[C@@H](C)C(=O)N[C@H](C(=O)N1CCC[C@H]1C(=O)N[C@@H](Cc1c[nH]cn1)C(=O)N[C@@H](Cc1c[nH]cn1)C(=O)N[C@@H](CCCNC(=N)N)C(=O)N1CCC[C@H]1C(=O)N[C@@H](CCC(N)=O)C(=O)N1CCC[C@H]1C(=O)N[C@@H](CCCNC(=N)N)C(=O)O)[C@@H](C)O` [MGC0122] (Hept6ynoyl-DRAATPHHRPQPR-OH), the residence time on NRP1‐b1 (setting [3]) is 0.0362 min.
